For 13 compounds, GI50 and TGI results are on record in PubChem BioAssay (NCI).

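All cell lines were grown in 96-well plates and treated with compound for 48 hours. GI50 = concentration required for 50% inhibition of growth. TGI is the concentration that stops growth completely.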

Some test systems named below: MCF7 breast; NCI/ADR-RES ovarian; T-47D breast; MDA-MB-231 breast; MDA-MB-435; BT-549 breast.
What all share (test): NCI tumour cell line growth inhibition, 48 h

For the compound `C=CCn1c(C)nc2cc(Nc3nc(Nc4ccc5nc(C)n(CC=C)c5c4)c4ccccc4n3)ccc21`, the GI50 with MCF7 breast is 0.224 µM; in the test on NCI/ADR-RES ovarian, 2.03 µM; in the test with T-47D breast, 0.28 µM. Also, the TGI is 0.554 µM with MCF7 breast, 5.27 µM in the test with NCI/ADR-RES ovarian and 0.909 µM with T-47D breast.
Regarding `O=c1oc2ccccc2c(O)c1/C=N\c1nc(-c2ccccc2)cs1`, the TGI amounted to 14.1 µM in the test on MCF7 breast; 54.8 µM with MDA-MB-231 breast; 20.6 µM in the test with MDA-MB-435; 63.5 µM in the test with NCI/ADR-RES ovarian; 47.1 µM in the test with T-47D breast.
With `CC(=O)NC1=N/C(=C/c2cc([N+](=O)[O-])ccc2O)CN1C`, the TGI in the test on BT-549 breast, with MCF7 breast, in the test on MDA-MB-231 breast, with MDA-MB-435, in the test with NCI/ADR-RES ovarian and in the test with T-47D breast was over 100 µM each time.
`COc1cc(OC)c(/C=C/c2ccc3ccccc3[n+]2C)c(OC)c1`: the GI50 with BT-549 breast was 0.401 µM; in the test with MCF7 breast, 0.841 µM; in the test on MDA-MB-231 breast it was 1.76 µM; in the test on MDA-MB-435, 0.342 µM; with NCI/ADR-RES ovarian, over 66.4 µM; with T-47D breast it was 0.294 µM. Also, the TGI in the test with BT-549 breast was 7.3 µM; with MCF7 breast, 10.6 µM; in the test on MDA-MB-231 breast it was 12.1 µM; with MDA-MB-435 it was 1.53 µM; in the test on NCI/ADR-RES ovarian, over 100 µM; in the test with T-47D breast it was 2.83 µM.
`COc1cc([C@H](C)c2ccc3ccccc3c2)cc(OC)c1OC`: the GI50 in the test on BT-549 breast is 0.848 µM; with MDA-MB-231 breast, 0.877 µM; with NCI/ADR-RES ovarian, 0.145 µM; in the test on T-47D breast, 0.626 µM. The TGI in the test on BT-549 breast is 18.4 µM; in the test with MDA-MB-231 breast, 70.9 µM; in the test on NCI/ADR-RES ovarian, over 100 µM; in the test with T-47D breast, over 100 µM.
As to `COC(=O)CCC/C=C\C[C@H]1C=CC(=O)/C1=C/C[C@@H](O)CCc1cccc(C(F)(F)F)c1`, the GI50 with BT-549 breast was 2.68 µM; with MCF7 breast, 0.775 µM; in the test on MDA-MB-231 breast, 4.65 µM; in the test on MDA-MB-435, 2.01 µM; with NCI/ADR-RES ovarian it was 2.81 µM; in the test with T-47D breast, 3.45 µM. Also, the TGI stood at 9.25 µM in the test with BT-549 breast; 12.9 µM in the test with MCF7 breast; 17.1 µM in the test on MDA-MB-231 breast; 6.15 µM in the test on MDA-MB-435; 10.9 µM with NCI/ADR-RES ovarian; 17 µM in the test with T-47D breast.
With `Cc1cc(S(=O)(=O)Nc2nc(N)nc(N3N=CCC3C)n2)c(S)cc1Cl` (stereo unspecified), the TGI in the test with BT-549 breast, in the test with MCF7 breast, with NCI/ADR-RES ovarian and in the test with T-47D breast was over 10 µM each time.
As for `Clc1nc(Oc2ccccc2)nc(-c2cn(-c3ccccc3)c3ccccc23)n1`, the GI50 was 17 µM in the test with BT-549 breast; 11.6 µM in the test with MCF7 breast; 5.33 µM in the test on MDA-MB-231 breast; 6.49 µM with MDA-MB-435; 17.8 µM with NCI/ADR-RES ovarian; 8.58 µM in the test with T-47D breast. For the same compound, the TGI in the test on BT-549 breast is 35.6 µM; with MCF7 breast it was 32.5 µM; in the test with MDA-MB-231 breast it was 15.7 µM; in the test on MDA-MB-435, 23.1 µM; in the test on NCI/ADR-RES ovarian, 34.9 µM; in the test with T-47D breast, 29.5 µM.
Turning to `O=C(Oc1ccc(O)c2c(=O)n3c(cc12)[nH]c1ccccc13)c1ccccc1`, the GI50 in the test with BT-549 breast was 6.35 µM; in the test with MCF7 breast, 74.1 µM; in the test with MDA-MB-231 breast, 6.22 µM; with MDA-MB-435, 28.5 µM; in the test with NCI/ADR-RES ovarian, 18.7 µM; with T-47D breast it was 9.32 µM. Moreover, the TGI in the test with BT-549 breast was 32.2 µM; in the test on MCF7 breast, over 100 µM; with MDA-MB-231 breast, 42.1 µM; with MDA-MB-435 it was 89.9 µM; in the test with NCI/ADR-RES ovarian, 55 µM; with T-47D breast it was 47.2 µM.
Consider `COc1cc2c(cc1OCc1ccccc1)N=C[C@@H]1C/C(=C/C(=O)NCCCN3C(=O)c4cccc5cccc(c45)C3=O)CN1C2=O`, for which the GI50 in the test with BT-549 breast is 0.273 µM; with MCF7 breast, 0.256 µM; with MDA-MB-231 breast it was 0.708 µM; with MDA-MB-435, 0.673 µM; with NCI/ADR-RES ovarian, 12.8 µM; in the test on T-47D breast, 0.137 µM. Also, the TGI with BT-549 breast was 1.08 µM; with MCF7 breast it was 14.3 µM; in the test with MDA-MB-231 breast, 6.14 µM; with MDA-MB-435, 3.05 µM; in the test on NCI/ADR-RES ovarian it was over 100 µM; with T-47D breast, 3.06 µM.
As for `COc1ccc(/C=C/c2cc(OC)c(OC)c(OC)c2)cc1NC(=O)/C=C/c1ccc(F)cc1`, the GI50 in the test on BT-549 breast was 4.49 µM; in the test with MCF7 breast, 3.34 µM; in the test on MDA-MB-231 breast, 5.8 µM; with NCI/ADR-RES ovarian it was 1.19 µM; in the test on T-47D breast, 5.51 µM. For the same compound, the TGI in the test on BT-549 breast was over 100 µM; with MCF7 breast, over 100 µM; with MDA-MB-231 breast it was over 100 µM; with NCI/ADR-RES ovarian it was 6.38 µM; in the test with T-47D breast, over 100 µM.
As to `COc1cc(OC2OC(C)C(O)C(O)C2O)cc2oc(-c3ccc(O)cc3)c(CC=C(C)C)c(=O)c12` (stereo unspecified), the GI50 with BT-549 breast is 31.2 µM; in the test on MCF7 breast, 13.9 µM; in the test with MDA-MB-231 breast it was 6.38 µM; with MDA-MB-435, 20.5 µM; in the test with NCI/ADR-RES ovarian, 24.3 µM; in the test with T-47D breast, 8.74 µM. For the same compound, the TGI with BT-549 breast is over 100 µM; in the test on MCF7 breast, 48.2 µM; in the test on MDA-MB-231 breast, 21.4 µM; in the test on MDA-MB-435, 59.9 µM; in the test with NCI/ADR-RES ovarian, 93.3 µM; in the test with T-47D breast, 30.8 µM.
On to `O=C(Nc1ccc(Cl)cc1)Nc1ccc(Cl)c(Cl)c1`, for which the GI50 with MCF7 breast was 2.27 µM; in the test on MDA-MB-231 breast it was 2.34 µM; in the test on MDA-MB-435 it was 3.4 µM; with NCI/ADR-RES ovarian it was 3.6 µM; in the test with T-47D breast, 3.05 µM. The TGI in the test with MCF7 breast is 8.9 µM; in the test with MDA-MB-231 breast, 7.65 µM; in the test on MDA-MB-435 it was over 100 µM; in the test with NCI/ADR-RES ovarian, over 100 µM; in the test with T-47D breast, 30.6 µM.
